In assay [1] the target is T1, GST tagged LXRbeta LBD (ligand binding domain) (Homo sapiens, UniProt P55055).
T1 construct: purchased Invitrogen pv4658.pps
T1 sequence (P55055 222-460 limits assumed): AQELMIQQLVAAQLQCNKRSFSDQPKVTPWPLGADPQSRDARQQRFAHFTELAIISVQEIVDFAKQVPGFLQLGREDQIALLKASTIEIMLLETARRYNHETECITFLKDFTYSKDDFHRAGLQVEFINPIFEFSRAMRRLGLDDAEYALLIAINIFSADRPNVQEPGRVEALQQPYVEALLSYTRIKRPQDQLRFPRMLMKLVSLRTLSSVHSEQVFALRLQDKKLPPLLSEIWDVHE
Briefly: LanthaScreen TR-FRET Liver X Receptor Coactivator Assay, LXR beta-LBD (co-activator recruitment; IP and % Emax relative to T0901317). It counts as biochemical. Conditions: for EC50: Inflection Point of co-activator recruitment, LXR beta-LBD, TR-FRET; for Emax: efficacy at max dose in relation to reference T0901317, LXR beta-LBD, read-out: LXR beta actiivty at max dose (%). A digest of the protocol:
(§1)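 LXR LBD protein was added to test compounds, then a mix of fluorescein-labelled coactivator peptide and terbium anti-GST antibody. After incubation at room temperature, TR-FRET was read. Inflection point and Emax were derived relative to the reference dual agonist T0901317.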

Assay [2] addresses T2, GST tagged LXRalpha LBD (ligand binding domain) (Homo sapiens, UniProt Q13133).
T2 construct: purchased Invitrogen pv4655
T2 sequence (Q13133 209-447 limits assumed): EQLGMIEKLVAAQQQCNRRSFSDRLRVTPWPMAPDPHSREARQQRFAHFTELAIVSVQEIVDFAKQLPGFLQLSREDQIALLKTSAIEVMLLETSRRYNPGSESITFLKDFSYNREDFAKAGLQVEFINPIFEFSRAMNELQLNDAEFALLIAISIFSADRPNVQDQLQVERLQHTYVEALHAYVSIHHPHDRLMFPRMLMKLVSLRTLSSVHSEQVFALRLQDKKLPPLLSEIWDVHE
Briefly: LanthaScreen TR-FRET Liver X Receptor Coactivator Assay, LXR alpha-LBD (co-activator recruitment; IP and % Emax relative to T0901317). The assay is classed as biochemical. Conditions: for EC50 / LXR alpha IP (nM): Inflection Point of co-activator recruitment, LXR alpha-LBD, TR-FRET; for Emax: efficacy at max dose in relation to reference T0901317, LXR alpha-LBD, read-out: LXR alpha actiivty at max dose (%). A digest of the protocol:
as §1

For `COc1cccc([C@@](O)(C(=O)N(C)CC[C@H]2CC23CCN(c2ccc(C(=O)N(C)C)c(Cl)c2)CC3)C(F)(F)F)c1` [Example 7-6, 2-chloro-N,N-dimethyl-4-((R)-1-(2-((R)-3,3,3-trifluoro-2-hydroxy-2-(3-methoxyphenyl)-N-methylpropanamido)ethyl)-6-azaspiro[2.5]octan-6-yl)benzamide], in assay [1], it took 21 nM to reach a half-maximal effect (EC50) and the Emax came to 76%. Further, in assay [2], it took 439 nM to reach a half-maximal effect (EC50) and the Emax came out at 33%.

`COc1cccc([C@@](O)(C(=O)N(C)CCCC2CCN(c3ccc(C(=O)N(C)C)c(OC)n3)CC2)C(F)(F)F)c1` [Example 2-18, (R)-2-methoxy-N,N-dimethyl-6-(4-(3-(3,3,3-trifluoro-2-hydroxy-2-(3-methoxyphenyl)-N-methylpropanamido)propyl)piperidin-1-yl)nicotinamide]: in assay [1], the EC50 was 523 nM and the Emax is 47%. In addition, in assay [2], the “LXR alpha IP (nM)” value is recorded as “No IP” and the Emax is 0%.

Consider `CN(C)C(=O)c1ccc(N2CCC(CCCN(C)C(=O)C(C)(C)c3ccccc3)CC2)cc1Cl` [Example 4-5, 2-chloro-4-(4-(3-(N,2-dimethyl-2-phenylpropanamido)propyl)piperidin-1-yl)-N,N-dimethylbenzamide], for which, in assay [1], the EC50 was 229 nM and the Emax was 50%. Further, in assay [2], the “LXR alpha IP (nM)” value is on record as “No IP” and the Emax was determined as 8%.

`Cc1cccc([C@](O)(C(=O)N(C)CCCC2CCN(c3ccc(C(=O)N(C)C)c(Cl)n3)CC2)C(F)(F)F)c1` [Example 1-16, (S)-2-chloro-N,N-dimethyl-6-(4-(3-(3,3,3-trifluoro-2-hydroxy-N-methyl-2-m-tolylpropanamido)propyl)piperidin-1-yl)nicotinamide]: in assay [1], the response was half-maximal at 179 nM (EC50) and the Emax was 54%. Besides, in assay [2], the “LXR alpha IP (nM)” value was “No IP” and the Emax worked out at 1%.

On to `CCOc1cccc([C@@](O)(C(=O)N(C)C[C@@H]2C[C@@H]2C2CCN(c3ccc(C(=O)N(C)C)c(Cl)n3)CC2)C(F)(F)F)c1` [Example 15-1, 2-chloro-6-(4-((1R,2R)-2-(((R)-2-(3-ethoxyphenyl)-3,3,3-trifluoro-2-hydroxy-N-methylpropanamido)methyl)cyclopropyl)piperidin-1-yl)-N,N-dimethylnicotinamide], for which, in assay [1], the response was half-maximal at 34 nM (EC50) and the Emax stood at 66%. Also, in assay [2], the “LXR alpha IP (nM)” value is “No IP” and the Emax was 9%.

As to `COc1cccc([C@@](O)(C(=O)N(C)CCCC2CCN(c3ccc(C(=O)N(C)C)c(Cl)c3)CC2)C(F)(F)F)c1` [Example 4-1, (R)-2-chloro-N,N-dimethyl-4-(4-(3-(3,3,3-trifluoro-2-hydroxy-2-(3-methoxyphenyl)-N-methylpropanamido)propyl)piperidin-1-yl)benzamide], in assay [1], the EC50 came out at 247 nM and the Emax was 59%. Further, in assay [2], the “LXR alpha IP (nM)” value is given as “No IP” and the Emax is 8%.

Take `COc1cccc([C@@](O)(C(=O)N(C)CC(F)CC2CCN(c3ccc(C(=O)N(C)C)c(Cl)n3)CC2)C(F)(F)F)c1` (stereo partly drawn) [Example 3-3, 2-chloro-6-(4-(2-fluoro-3-((R)-3,3,3-trifluoro-2-hydroxy-2-(3-methoxyphenyl)-N-methylpropanamido)propyl)piperidin-1-yl)-N,N-dimethylnicotinamide]: in assay [1], the response was half-maximal at 373 nM (EC50) and the Emax is 49%. In assay [2], the “LXR alpha IP (nM)” value is “No IP” and the Emax was 6%.

For the compound `CN(C)C(=O)c1ccc(N2CCC(CCCN(C)C(=O)[C@](O)(c3cccc(OC(F)F)c3)C(F)(F)F)CC2)nc1Cl` [Example 1-51, (R)-2-chloro-6-(4-(3-(2-(3-(difluoromethoxy)phenyl)-3,3,3-trifluoro-2-hydroxy-N-methyl-propanamido)propyl)piperidin-1-yl)-N,N-dimethylnicotinamide], the results for the EC50 in assay [1] and in assay [2] were 546 nM and 5530 nM, respectively. The Emax is 55% in assay [1] and 23% in assay [2].

On to `CN(C)C(=O)c1ccc(N2CCC(CCCN(C)C(=O)[C@@]3(c4ccccc4)CCOC3)CC2)nc1Cl` [Example 1-55, (R)-2-chloro-N,N-dimethyl-6-(4-(3-(N-methyl-3-phenyltetrahydrofuran-3-carboxamido)propyl)piperidin-1-yl)nicotinamide], for which, in assay [1], the EC50 stood at 856 nM and the Emax is 48%. In assay [2], the “LXR alpha IP (nM)” value was “No IP” and the Emax is 16%.

Regarding `CN(C)C(=O)c1ccc(N2CCC(CCCN(C)C(=O)[C@]3(c4ccccc4)CC(F)(F)CO3)CC2)nc1Cl` [Example 1-66, (R)-2-chloro-6-(4-(3-(4,4-difluoro-N-methyl-2-phenyltetrahydrofuran-2-carboxamido)propyl)piperidin-1-yl)-N,N-dimethylnicotinamide], in assay [1], a half-maximal response (EC50) required 138 nM and the Emax was 82%. Also, in assay [2], the “LXR alpha IP (nM)” value is given as “No IP” and the Emax amounted to 7%.

`COc1cccc([C@@](O)(C(=O)N(C)CCCC2(C)CCN(c3ccc(C(=O)N(C)C)c(Cl)n3)CC2)C(F)(F)F)c1` [Example 9-1, (R)-2-chloro-N,N-dimethyl-6-(4-methyl-4-(3-(3,3,3-trifluoro-2-hydroxy-2-(3-methoxyphenyl)-N-methylpropanamido)propyl)piperidin-1-yl)nicotinamide]: in assay [1], the EC50 worked out at 16 nM and the Emax turned out to be 37%. In assay [2], the “LXR alpha IP (nM)” value is reported as “No IP” and the Emax is 0%.

For `CN(C)C(=O)c1ccc(N2CCC([C@H]3C[C@@H](N(C)C(=O)[C@](O)(c4cccc(C5CC5)c4)C(F)(F)F)C3)CC2)nc1Cl` [Example 17-2, cis-2-chloro-6-(4-(-3-((R)-2-(3-cyclopropylphenyl)-3,3,3-trifluoro-2-hydroxy-N-methylpropanamido)cyclobutyl)piperidin-1-yl)-N,N-dimethylnicotinamide], in assay [1], the EC50 came out at 33 nM and the Emax was found to be 43%. In addition, in assay [2], the “LXR alpha IP (nM)” value is reported as “No IP” and the Emax turned out to be 10%.

Take `CN(C)C(=O)c1ccc(N2CCC(CCCN(C)C(=O)[C@]3(c4ccccc4)CCOC3)CC2)nc1Cl` [Example 1-54, (S)-2-chloro-N,N-dimethyl-6-(4-(3-(N-methyl-3-phenyltetrahydrofuran-3-carboxamido)propyl)piperidin-1-yl)nicotinamide]: in assay [1], the EC50 came to 579 nM and the Emax came out at 49%. In assay [2], the “LXR alpha IP (nM)” value is “No IP” and the Emax stood at 15%.

Regarding `CN(C)C(=O)c1ccc(N2CCC(CC3CC(NC(=O)[C@](O)(c4ccccc4)C(F)(F)F)C3)CC2)nc1Cl` (stereo partly drawn) [Example 11-2, (R)-2-chloro-N,N-dimethyl-6-(4-((3-(3,3,3-trifluoro-2-hydroxy-2-phenylpropanamido)cyclobutyl)methyl)piperidin-1-yl)nicotinamide], in assay [1], the EC50 was 273 nM and the Emax was 118%. Further, in assay [2], the EC50 was 2390 nM and the Emax turned out to be 28%.

With `CC(C)[C@](O)(C(=O)N(C)CCCC1CCN(c2ccc(C(=O)N(C)C)c(Cl)n2)CC1)C(F)(F)F` [Example 1-4, (S)-2-chloro-6-(4-(3-(2-hydroxy-N,3-dimethyl-2-(trifluoromethyl)butanamido)propyl)piperidin-1-yl)-N,N-dimethylnicotinamide], in assay [1], the EC50 was 82 nM and the Emax came out at 92%. Moreover, in assay [2], the EC50 stood at 1180 nM and the Emax came to 52%.
